Read-outs that look alike come from different tables or passages of the source. No end group written: not given here.
B1: Garvicin KS: three-peptide leaderless bacteriocin (GarA, GarB, GarC; SEQ ID NO:6-8), peptides synthesized (peptide, listed as Lactococcus garvieae)
chain 1: MGAIIKAGAKIVGKGVLGGGASWLGWNVGEKIWK
chain 2: MGAIIKAGAKIIGKGLLGGAAGGATYGGLKKIFG
chain 3: MGAIIKAGAKIVGKGALTGGGVWLAEKLFGGK

Key:
[1] = system: S. aureus ATTC 10832 biofilm; assay: Biofilm-oriented antimicrobial test (BOAT), MIC50 in biofilms; format: cell-based, Staphylococcus aureus; conditions: for MIC50: individual component
Experimental: (§1) Synergistic interactions between antimicrobials were determined using the fractional inhibition concentration (FIC). The FIC values were calculated as follows: the sum of the FIC =FICa+FICb+FICc, where the FICa means MIC of A in combination/MIC of A alone, FICb means MIC of B in combination/MIC of B, and FICc means MIC of C in combination/MIC of C alone. Effects were considered as synergistic if FIC was ≤0.5 for two components mixture and ≤0.75 for three components mixture.
(§2) Staphylococcus aureus strains were inoculated in 5 ml of TSB and incubated O/N at 37° C. Ten μl of the O/N cultures were then inoculated in 90 μl of TSB supplemented with 1% glucose and 1% NaCl (TSB-GN) in the appropriate wells of a 96-well microtiter plate (Sarstedt) to a final volume of 100 μl. The plates were then incubated at 37° C. for 24 h. After the incubation, the presence of the biofilm at the bottom of the wells was assessed visually.
(§3) The BOAT assay was performed as described previously (Gronseth et al., 2017, Int. J. Pediatr. Otorhinolaryngol., Vol. 103, p 58-64) with some modifications. The serial dilutions of the antimicrobials were prepared in challenge plates as follows: 175 μl of TSB were transferred in each row of a 96-well microtiter plate, except for the first row, according to the number of microbial strains to treat. In the first row of the plate, the antimicrobials were diluted to their respective working concentrations in a final volume of 350 μl of TSB. From the first row, 175 μl of the antimicrobial dilutions were then transferred to the second row of the plate and further serially diluted to the bottom of the plate. The same procedure was followed to prepare the controls, except that instead of the antimicrobials an equivalent volume of the respective vehicles were used. The biofilms were allowed to form for 24 h and then washed twice with 100 μl of sterile saline buffer and a total of 150 μl of the antimicrobial and control dilutions were transferred from the challenge plate to the corresponding wells of the biofilm plate. The challenged biofilms were then incubated for an additional 24 h at 37° C. After the challenge period, the antimicrobial dilutions were removed and the biofilms were carefully washed three times with 150 μl of sterile saline buffer. A total of 100 μl of TSB supplemented with 0.025% of triphenyl-tetrazolium chloride (TTC, Sigma) were then added to each well of the plate and further incubated at 37° C. for 5h. The results were then assessed by monitoring the development (or not) of red formazan (red colour), denoting the retention of metabolic activity by bacterial cells (Moussa et al., 2013, J. Mycol., Vol. 2013; Perez et al., 2010, Lett. Appl. Microbiol., Vol. 51, p 331-337). The medium was then removed and 200 μl of an ethanol:acetone (70:30) mixture was added to the wells and incubated O/N in order to extract the red formazan. The amount of extracted dye, reflecting the degree of bacterial cell metabolic activity, was then quantified by spectrophotometric readings at 492 nm.

[2] = system: S. aureus ATTC 29213 biofilm; assay: as above; format: cell-based, Staphylococcus aureus; conditions: for MIC50: individual component
Experimental: as §1, §2, §3

[3] = system: S. aureus Newman biofilm; assay: as above; format: cell-based, Staphylococcus aureus; conditions: for MIC50: individual component
Experimental: as §1, §2, §3

[4] = system: MRSA; assay: MIC of the mixture dissolved in 5% HPC; format: cell-based, Staphylococcus aureus; conditions: for MIC: Staphylococcus aureus, MRSA, read-out: final MIC of the component in the mixture in HPC
Experimental: Antimicrobial activity was measured using the AAMP assay (Wiegand et al., 2008, Nat. Protoc., Vol. 3(2), p 163-175).
We also tested hydroxypropyl cellulose (HPC) which is a more hydrophilic polymer and commonly used for topical and oral pharmaceutical preparations (Alvarez-Lorenzo et al., 1999, Int. J. Pharmaceutics, Vol. 180(1), p 91-103).

[5] = system: S. haemolyticus strains 4068-4073; assay: microbe, parasite or virus in culture; format: cell-based; conditions: 5 hour incubation
Experimental: Bacteriocins and antimicrobial assays. K1-EJ and garvicin KS peptides (Gak-A, -B and -C) were synthesized by Pepmic Co., Ltd, China, with >95% purity. These bacteriocins were all solubilized in 0.1% (vol/vol) trifluoracetic acid (TFA; Sigma-Aldrich). Micrococcin P1 was purchased from Cayman Chemical, Michigan, USA with 95% purity and solubilized in a 50% (v/v) mixture of isopropanol (Merck) […] (Sigma-Aldrich) at a stock concentration of 1 mg/ml. Cell growth inhibition assays and antimicrobial synergy determination was performed in line with Example 1.
To investigate whether there was synergy between the three bacteriocins (K1-EJ, GarKS and MP1), a checkboard antimicrobial assay was performed. The selected strains were treated for 5, 24 and 48 h with a range of concentrations of K1-EJ, GarKS and MP1 alone or in different combinations. […] Double combinatorial treatments (GarKS/MP1; K1-EJ/GarKS; K1-EJ/MP1) increased the antimicrobial activity of the bacteriocins. […] This was particularly evident at the 24 and 48 h time-points.

[6] = system: S. aureus biofilms; assay: BOAT followed by CFU counting; format: cell-based, Staphylococcus aureus; conditions: 5 mg/ml garvicin KS, 0.1 mg/ml micrococcin P1, 10 mg/ml penicillin G
Experimental: The procedure for the BOAT assay was repeated as described above except that instead of adding the TTC solution, the antimicrobial-challenged cells were resuspended in TSB and then serially diluted in TSB buffer. Serial dilutions of the bacterial cells were than plated on BHI agar plates and incubated at 37° C. for 24 h. The results were then assessed by direct counting of the developed colonies and the colony forming unit (CFU) was determined.

[7] = system: S. aureus ATTC 33591 biofilm; assay: LIVE/DEAD biofilm staining, confocal microscopy; format: cell-based, Staphylococcus aureus; conditions: data not shown
[8] = Staphylococcus aureus, ATTC10832BIOFILM, read-out: MIC50
[9] = garvicin KS + micrococcin P1 + penicillin G
[10] = Staphylococcus aureus, ATTC29213BIOFILM, read-out: MIC50
[11] = Staphylococcus aureus, read-out: MIC50

Row | Molecule | MIC50 [1, 8] [µg/mL] | MIC50 of the component in combination ([1]; garvicin KS + micrococcin P1) [µg/mL] | MIC50 of the component in combination [1, 9] [µg/mL] | MIC50 [2, 10] [µg/mL] | MIC50 of the component in combination ([2]; garvicin KS + micrococcin P1) [µg/mL] | MIC50 of the component in combination [2, 9] [µg/mL] | MIC50 [3, 11] [µg/mL] | MIC50 of the component in combination ([3]; garvicin KS + micrococcin P1) [µg/mL] | MIC50 of the component in combination [3, 9] [µg/mL] | MIC [4] [µg/mL] | MIC50 of the component in combination ([1]; garvicin KS + penicillin G) [µg/mL] | MIC50 of the component in combination ([2]; garvicin KS + penicillin G) [µg/mL] | MIC50 of the component in combination ([3]; garvicin KS + penicillin G) [µg/mL] | cell viability, LogCFU after BOAT [6] | LIVE/DEAD staining pattern [7] | also measured
1 | C/C=C(\NC(=O)c1csc(-c2csc(-c3ccc4c(n3)-c3csc(n3)[C@H]([C@@H](C)O)NC(=O)c3csc(n3)[C@H](C(C)C)NC(=O)c3csc(n3)/C(=C/C)NC(=O)[C@H]([C@@H](C)O)NC(=O)c3csc-4n3)n2)n1)C(=O)NC[C@@H](C)O [MP1, micrococcin P1] | > 100 | 25 | 3.1 | > 100 | 25 | 6.3 | > 100 | 25 | 25 | 0.04 | – | – | – | – | – | MIC50 ([5]; Staphylococcus haemolyticus, STRAINS40684073, read-out: MIC50 values over strains): 0.02 to 0.15 µg/mL
2 | CC1(C)S[C@@H]2[C@H](NC(=O)Cc3ccccc3)C(=O)N2[C@H]1C(=O)O [Penicillin G] | 10000 | – | 310 | 10000 | – | 630 | 10000 | – | 2500 | 2 | 630 | 2500 | 1300 | reduction in the viability of the non-MRSA strains | increased resistance | –
3 | MKFKFNPTGTIVKKLTQYEINWYKQQYGRYPWERPVA [Hybrid K1-EJ] | – | – | – | – | – | – | – | – | – | – | – | – | – | – | – | MIC50 values over strains [5]: 0.78 µg/mL
4 | B1 | – | 1250 | 160 | – | 1250 | 310 | – | 1250 | 1250 | – | 310 | 1250 | 630 | most dramatic reduction in LogCFU levels for all the strains | increased resistance | MIC50 [1]: 2500 µg/mL; MIC50 [2]: 1250 µg/mL; MIC50 [3]: 1250 µg/mL; final MIC of the component in the mixture in HPC [4]: 2 µg/mL
